{"source": "patent US5650442A", "about": "(priority 1994, dated 1997)", "key": {"[1]": {"tested_on": "human MCF7 breast cancer cells", "test": "Chemosensitization of human breast cancer cells to melphalan or thiotepa, clonogenic assay", "settings": "1 hr, 37° C.; for DEA/NO enhancement ratio at the 10% surviving fraction level: 1 mM DEA/NO", "procedure": "FIG. 10 is a graph of surviving fraction versus concentration (μg/ml) of melphalan in the absence or presence of 1 mMDEA/NO or released DEA/NO showing the survival curves for human MCF7 breast cancer cells exposed to melphalan in the absence or presence of 1 mM DEA/NO or released DEA/NO.\nFIG. 11 is a graph of surviving fraction versus concentration (μg/ml) of thiotepa in the absence or presence of 1 mM DEA/NO or released DEA/NO showing the survival curves for human MCF7 breast cancer cells exposed to thiotepa in the absence or presence of 1 mM DEA/NO or released DEA/NO.\n(§1) Chinese hamster V79 lung fibroblasts were cultured in F12 medium supplemented with 10% fetal calf serum and antibiotics. […] The assay system was specifically designed to evaluate radiation sensitivity of cells exposed to radiation under both aerobic and hypoxic conditions (Mitchell et al., Radiat. Res., 96, 422-428 (1983); Russo et al., Radiat. Res., 103, 232-239 (1985); and DeGraff et al., Int. J. Radiat. Oncol. Biol. Phys., 16, 1021-1024 (1989)).\nHuman breast cancer cells in log phase were exposed for 1 hr at 37° C. to varying concentrations of melphalan or thiotepa in the absence or presence of 1 mM DEA/NO or released DEA/NO. […] Cytotoxicity was evaluated using the clonogenic assay of Example 2.\nFIGS. 10 and 11 are graphs of surviving fraction versus concentration (μg/ml) of melphalan and thiotepa, respectively."}, "[2]": {"tested_on": "Chinese hamster V79 lung fibroblasts", "test": "Radiation survival of hypoxic V79 cells (metabolism-mediated oxygen depletion), clonogenic assay, SER", "type": "cell-based", "settings": "hypoxic; for SER: 1% surviving fraction level", "procedure": "as §1\nWhen cultured cells were exposed to DEA/NO in subsequent examples, DEA/NO in F12 medium with 10 mM HEPES buffer, pH 7.0, was used. […] Control cells in subsequent examples were exposed to 0.02N NaOH, instead of DEA/NO.\nThe induction of hypoxia in dense cell suspensions by metabolism-mediated oxygen depletion was carried out as described by Mitchell et al. (supra) and Phillips et al. (Int. J. Radiat. Oncol. Biol. Phys., 12, 1627-1635 (1986)). Briefly, stock cultures of exponentially growing Chinese hamster V79 lung fibroblasts in 850 cm^2 roller bottles were trypsinized, rinsed with medium, and counted. Samples of 10^8 cells were then placed in 15 ml centrifuge tubes, centrifuged at 1,000 rpm for 5 min at 25° C., and rinsed once with medium or medium containing DEA/NO (final concentrations ranging from 0.1-2.0 mM), nitrite, diethylamine, or DEA/NO that had been allowed to decompose in full medium overnight at 37° C.\nThe cell suspension was taken up into a 3 ml glass syringe with a 18 gauge spinal needle. Air bubbles were removed, and a 25 gauge needle was fitted onto the syringe. The syringe was rotated by hand at room temperature for 20 min to allow for cellular metabolic oxygen consumption. The syringe was then placed in a lucite block and irradiated. After a given dose of radiation, 1-3 drops of cell suspension were discarded, and 1-2 drops were collected in tubes containing drug-free medium. In this manner an entire hypoxic survival curve for a given treatment condition can be obtained from a single syringe.\nHypoxic Chinese hamster V79 lung fibroblasts of Example 2 were irradiated at room temperature with 4 MeV photons from a linear accelerator at a dose rate of 1.5 Gy/min. Full electron equilibrium was ensured for all irradiations.\nFollowing irradiation, the various cell suspensions were pipetted, counted, diluted, and plated for macroscopic colony formation. Each dose determination was plated in triplicate and experiments were repeated a minimum of two times. Plates were incubated for seven days, after which colonies were fixed with methanol/acetic acid (3:1), stained with crystal violet, and counted. Colonies containing >50 cells were scored and graphed as FIGS. 1-3. Error bars in the graphs represent the standard deviation of the mean and are shown when larger than the symbol used to designate a data point. Survival curve data were fitted using a linear quadratic model of Albright (Radiat. Res., 112, 331-340 (1987)), and the survival curves shown in the figures represent the best fit curves for the experimental data points. Sensitizer enhancement ratios (SER) were calculated by dividing the radiation dose for control hypoxic conditions by the radiation dose for various agents under hypoxic conditions at the 1% surviving fraction level.\nRadiation survival curves for V79 cells exposed to varying concentrations of DEA/NO and various DEA/NO decomposition products under hypoxic conditions (metabolic hypoxia induction) are shown in FIG. 1A, which is a graph of the surviving fraction versus dose (Gy)."}, "C3H mice": {"tested_on": "C3H mice", "test": "Protection of mice from whole body irradiation", "type": "in vivo"}}, "data": [{"smiles": "CCN(CC)/[N+]([O-])=N/[O-].[Na+]", "note": "[DEA/NO]", "values": [{"measurement": "enhancement of chemosensitivity / cytotoxicity", "setting": "[1]; melphalan and thiotepa, 1 mM", "result": "significantly enhanced the chemosensitivity of human breast cancer cells to melphalan and thiotepa"}, {"measurement": "DEA/NO enhancement ratio at the 10% surviving fraction level", "setting": "[1]; melphalan", "result": 3.3}, {"measurement": "DEA/NO enhancement ratio at the 10% surviving fraction level", "setting": "[1]; thiotepa", "result": 1.3}, {"measurement": "extent of radiosensitization", "setting": "[2]; 0.1 mM", "result": "modest"}, {"measurement": "SER", "setting": "[2]; 0.10 mM, ± SD", "result": "1.1 ± 0.06"}, {"measurement": "SER", "setting": "[2]; 0.50 mM, ± SD", "result": "2.1 ± 0.40"}, {"measurement": "SER", "setting": "[2]; 1.00 mM", "result": 2.4}, {"measurement": "effectiveness in eliminating radiation resistance due to hypoxia", "setting": "[2]; 2.0 mM", "result": "just as effective as oxygen in eliminating radiation resistance due to hypoxia"}, {"measurement": "SER", "setting": "[2]; 2.00 mM, ± SD", "result": "2.9±0.4"}, {"measurement": "extent of radiosensitization", "setting": "[2]; 0.5 and 1.0 mM", "result": "significant enhancement was observed"}, {"measurement": "Percent survival of mice at 30 days", "setting": "C3H mice; 700 cGy, 80 mg/kg i.p. 10 min before", "result": 100, "unit": "%"}, {"measurement": "Percent survival of mice at 30 days", "setting": "C3H mice; 700 cGy, 80 mg/kg i.p. 30 min before", "result": 100, "unit": "%"}, {"measurement": "Percent survival of mice at 30 days", "setting": "C3H mice; 800 cGy, 80 mg/kg i.p. 10 min before", "result": 100, "unit": "%"}, {"measurement": "Percent survival of mice at 30 days", "setting": "C3H mice; 800 cGy, 80 mg/kg i.p. 30 min before", "result": 90, "unit": "%"}, {"measurement": "Percent survival of mice at 30 days", "setting": "C3H mice; 900 cGy, 80 mg/kg i.p. 10 min before", "result": 77, "unit": "%"}, {"measurement": "Percent survival of mice at 30 days", "setting": "C3H mice; 900 cGy, 80 mg/kg i.p. 30 min before", "result": 80, "unit": "%"}, {"measurement": "Percent survival of mice at 30 days", "setting": "C3H mice; 1000 cGy, 80 mg/kg i.p. 10 min before", "result": 44, "unit": "%"}, {"measurement": "Percent survival of mice at 30 days", "setting": "C3H mice; 1000 cGy, 80 mg/kg i.p. 30 min before", "result": 10, "unit": "%"}]}]}
